Our source for the T/C values is PubChem BioAssay AID330 (DTP/NCI, 2004).

The experiment relates to P388 leukemia ip, CD2F1 mice, survival T/C. Kind of experiment: NCI In Vivo Anticancer Drug Screen. Data for tumor model P388 Leukemia (intraperitoneal) in CD2F1 (CDF1) mice. As to conditions: endpoint: median survival time, higher = longer survival. The gist of the method: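 Mice carrying the transplanted tumor received test compound or vehicle. Survival was recorded in each group, and the value is the treated-group measurement divided by that of the vehicle-treated control group.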

The mark [1] stands for this setting: dose: 100.0 mg/kg/injection, schedule: Q04DX002 (ip), vehicle: saline.
Where [2] appears, read: dose: 200.0 mg/kg/injection, schedule: Q04DX002 (ip), vehicle: saline.
[3] abbreviates: dose: 400.0 mg/kg/injection, schedule: Q04DX002 (ip), vehicle: saline.
[4] abbreviates: dose: 60.0 mg/kg/injection, schedule: Q01DX005 (ip), vehicle: saline with Tween-80.
The mark [5] stands for this setting: dose: 1.56 mg/kg/injection, schedule: Q01DX009 (ip), vehicle: saline with Tween-80.
The mark [6] stands for this setting: dose: 25.0 mg/kg/injection, schedule: Q01DX009 (ip), vehicle: saline with Tween-80.
Where [7] appears, read: dose: 50.0 mg/kg/injection, schedule: Q01DX009 (ip), vehicle: saline with Tween-80.
Setting [8] is: dose: 50.0 mg/kg/injection, schedule: Q04DX003 (ip), vehicle: saline with Tween-80.
The mark [9] stands for this setting: dose: 100.0 mg/kg/injection, schedule: Q04DX003 (ip), vehicle: saline with Tween-80.
Where [10] appears, read: dose: 200.0 mg/kg/injection, schedule: Q04DX003 (ip), vehicle: saline with Tween-80.
Where [11] appears, read: dose: 25.0 mg/kg/injection, schedule: Q01DX009 (ip), vehicle: other.
Setting [12] is: dose: 50.0 mg/kg/injection, schedule: Q01DX009 (ip), vehicle: other.
[13] abbreviates: dose: 100.0 mg/kg/injection, schedule: Q01DX009 (ip), vehicle: other.
Where [14] appears, read: dose: 60.0 mg/kg/injection, schedule: Q01DX005 (ip), vehicle: Klucel (hydroxypropylcellulose) (HPC).
Setting [15] is: dose: 50.0 mg/kg/injection, schedule: Q01DX009 (ip), vehicle: saline.

Where “and” joins values, the source holds several entries; their conditions need not be identical. Identical values can stand only once. Inconclusive results and toxic doses are left out.

With `N=C(N)SCC(=O)Nc1nc(NC(=O)CSC(=N)N)nc(NC(=O)CSC(=N)N)n1`, the T/C is, setting by setting: under setting [1], 101 % of control; under setting [2], 99 % of control; under setting [3], 100 % of control.

Consider `[B-]1n2ccc[n+]2[B-]n2ccc[n+]21`, for which the T/C runs as follows: (dose: 15.0 mg/kg/injection, schedule: Q01DX005 (ip), vehicle: saline with Tween-80) 100 % of control; (dose: 30.0 mg/kg/injection, schedule: Q01DX005 (ip), vehicle: saline with Tween-80) 100 % of control; under setting [4], 98 % of control.

Turning to `CCN(CC)CCN1C(=O)c2cccc3cc(N)cc(c23)C1=O`, the T/C is, setting by setting: under setting [5], 101 % of control; (dose: 1.6 mg/kg/injection, schedule: Q01DX009 (ip), vehicle: saline with Tween-80) 100 % of control; (dose: 3.12 mg/kg/injection, schedule: Q01DX009 (ip), vehicle: saline with Tween-80) 98 % of control; (dose: 3.2 mg/kg/injection, schedule: Q01DX009 (ip), vehicle: saline with Tween-80) 108 % of control; (dose: 6.25 mg/kg/injection, schedule: Q01DX009 (ip), vehicle: saline with Tween-80) 98 % of control; (dose: 6.5 mg/kg/injection, schedule: Q01DX009 (ip), vehicle: saline with Tween-80) 107 % of control and 123 % of control. The T/C by setting is: (dose: 12.5 mg/kg/injection, schedule: Q01DX009 (ip), vehicle: saline with Tween-80) 107 % of control; (dose: 13.1 mg/kg/injection, schedule: Q01DX009 (ip), vehicle: saline with Tween-80) 121 % of control and 123 % of control; under setting [6], 114 % of control; (dose: 26.0 mg/kg/injection, schedule: Q01DX009 (ip), vehicle: saline with Tween-80) 124 % of control; under setting [7], 160 % of control.

With `C[n+]1cccc(/C=N/O)c1`, the T/C under setting [1] is 100 % of control and the T/C under setting [2] was 100 % of control.

`CCNc1ccc(F)cc1[N+](=O)[O-]`: the T/C was 100 % of control under setting [8], 100 % of control under setting [9] and 86 % of control under setting [10].

Take `NNc1ccc2cccc([N+](=O)[O-])c2n1`: the T/C is, setting by setting: under setting [11], 106 % of control; under setting [12], 100 % of control; under setting [13], 100 % of control.

On to `COc1cc(C(NC(N)=O)c2cc3c(cc2OC(C)=O)OCO3)cc(OC)c1OC` (stereo not drawn), for which the T/C is, setting by setting: under setting [14], 90 % of control; (dose: 120.0 mg/kg/injection, schedule: Q01DX005 (ip), vehicle: Klucel (hydroxypropylcellulose) (HPC)) 86 % of control.

Regarding `CC(C)(C)N1COC2CCCCC21` (stereo not drawn), the T/C is 106 % of control (dose: 15.0 mg/kg/injection, schedule: Q01DX005 (ip), vehicle: Klucel (hydroxypropylcellulose) (HPC)); 102 % of control (dose: 30.0 mg/kg/injection, schedule: Q01DX005 (ip), vehicle: Klucel (hydroxypropylcellulose) (HPC)); 106 % of control and 117 % of control under setting [14]; 106 % of control (dose: 240.0 mg/kg/injection, schedule: Q01DX005 (ip), vehicle: Klucel (hydroxypropylcellulose) (HPC)).

`CC1(c2cccc[n+]2Cc2ccc(Cl)c(Cl)c2)OCCO1`: the T/C was 100 % of control (dose: 12.5 mg/kg/injection, schedule: Q01DX005 (ip), vehicle: saline) and 99 % of control (dose: 25.0 mg/kg/injection, schedule: Q01DX005 (ip), vehicle: saline).

As for `CON(Cc1ccc(C(=O)NC(C)C)cc1)Cc1ccc(C(=O)NC(C)C)cc1`, the T/C is, setting by setting: under setting [11], 94 % of control; under setting [12], 100 % of control; under setting [13], 92 % of control.

Regarding `CC(=O)C(O)CC(=O)C(O)CC(=O)C(O)N1C(=O)C=CC1=O` (stereo not drawn), the T/C by setting is: (dose: 6.25 mg/kg/injection, schedule: Q01DX009 (ip), vehicle: Klucel (hydroxypropylcellulose) (HPC)) 93 % of control; (dose: 12.5 mg/kg/injection, schedule: Q01DX009 (ip), vehicle: Klucel (hydroxypropylcellulose) (HPC)) 95 % of control; (dose: 25.0 mg/kg/injection, schedule: Q01DX009 (ip), vehicle: Klucel (hydroxypropylcellulose) (HPC)) 97 % of control.

In the case of `CC1(C)OC(=O)C2(O1)C(=O)C1CCCCC12C` (stereo not drawn), the T/C was 100 % of control under setting [4]; 95 % of control (dose: 120.0 mg/kg/injection, schedule: Q01DX005 (ip), vehicle: saline with Tween-80); 95 % of control (dose: 240.0 mg/kg/injection, schedule: Q01DX005 (ip), vehicle: saline with Tween-80).

For `CNc1c([N+](=O)[O-])cc2[nH]cnc2c1[N+](=O)[O-]`, the T/C (dose: 25.0 mg/kg/injection, schedule: Q04DX003 (ip), vehicle: saline with Tween-80) is 97 % of control and the T/C under setting [8] is 95 % of control.

Turning to `CN=C(NC(C)C)c1ccccc1`, the T/C by setting is: (dose: 12.5 mg/kg/injection, schedule: Q01DX009 (ip), vehicle: saline) 91 % of control; (dose: 25.0 mg/kg/injection, schedule: Q01DX009 (ip), vehicle: saline) 88 % of control; under setting [15], 104 % of control and 88 % of control.

`C=C1C(=O)O[C@H]2CCC[C@@]12C`: the T/C (dose: 100.0 mg/kg/injection, schedule: Q01DX001 (ip), vehicle: saline with Tween-80) is 103 % of control; the T/C (dose: 200.0 mg/kg/injection, schedule: Q01DX001 (ip), vehicle: saline with Tween-80) was 106 % of control; the T/C (dose: 400.0 mg/kg/injection, schedule: Q01DX001 (ip), vehicle: saline with Tween-80) is 113 % of control.

In the case of `O=C(c1cccnc1)c1cc(-c2ccccn2)c(=O)n2ccccc12`, the T/C runs as follows: under setting [6], 99 % of control and 104 % of control; under setting [7], 107 % of control and 109 % of control and 88 % of control; (dose: 100.0 mg/kg/injection, schedule: Q01DX009 (ip), vehicle: saline with Tween-80) 104 % of control and 107 % of control and 89 % of control; (dose: 200.0 mg/kg/injection, schedule: Q01DX009 (ip), vehicle: saline with Tween-80) 90 % of control.

As for `CCc1cc(C=C2C(=O)c3ccccc3C2=O)cc(CC)c1O`, the T/C under setting [1] is 99 % of control, the T/C under setting [2] was 99 % of control and the T/C under setting [3] is 99 % of control.

With `CCOS(=O)(=O)c1ccc(C(=O)O)cc1`, the T/C is 108 % of control under setting [15]; 107 % of control (dose: 100.0 mg/kg/injection, schedule: Q01DX009 (ip), vehicle: saline); 107 % of control (dose: 200.0 mg/kg/injection, schedule: Q01DX009 (ip), vehicle: saline).

On to `C[n+]1c(/C=C\c2ccc(Cl)cc2)ccc2ccccc21`, for which the T/C was 100 % of control under setting [5] and 113 % of control (dose: 3.13 mg/kg/injection, schedule: Q01DX009 (ip), vehicle: saline with Tween-80).

Regarding `c1nc(SC2CCCC2)c2[nH]cnc2n1`, the T/C is 118 % of control under setting [9]; 104 % of control under setting [10]; 118 % of control (dose: 400.0 mg/kg/injection, schedule: Q04DX003 (ip), vehicle: saline with Tween-80).

`CCCCN(CCCC)CCCN(CCCOS(C)(=O)=O)CCCOS(C)(=O)=O`: the T/C by setting is: (dose: 20.0 mg/kg/injection, schedule: Q01DX009 (ip), vehicle: saline) 181 % of control and 185 % of control; (dose: 40.0 mg/kg/injection, schedule: Q01DX009 (ip), vehicle: saline) 231 % of control and 236 % of control.

On to `CCN(CC)CCOc1ccc(N(CCCl)CCCl)cc1`, for which the T/C (dose: 3.13 mg/kg/injection, schedule: Q04DX003 (ip), vehicle: Klucel (hydroxypropylcellulose) (HPC)) is 117 % of control; the T/C (dose: 12.5 mg/kg/injection, schedule: Q04DX003 (ip), vehicle: Klucel (hydroxypropylcellulose) (HPC)) was 153 % of control and 168 % of control; the T/C (dose: 25.0 mg/kg/injection, schedule: Q04DX003 (ip), vehicle: Klucel (hydroxypropylcellulose) (HPC)) is 90 % of control.

For `O=C(CSc1ccccn1)C1=S=C2C=CC=CN2C1=O`, the T/C is, setting by setting: (dose: 50.0 mg/kg/injection, schedule: Q01DX005 (ip), vehicle: saline with Tween-80) 92 % of control; (dose: 100.0 mg/kg/injection, schedule: Q01DX005 (ip), vehicle: saline with Tween-80) 95 % of control; (dose: 200.0 mg/kg/injection, schedule: Q01DX005 (ip), vehicle: saline with Tween-80) 93 % of control.
